Test system: Golden Syrian hamsters
Test: Monocular form deprivation (MFD) myopia animal model, axial length by A-scan ultrasonography
Assay type: in vivo
Settings: after 21-day daily eye drop treatment
Experimental: 0.125% atropine eye drop was prepared under sterile conditions by dilution of 1% atropine ophthalmic solution with artificial tears (commercially available from Alcon Laboratories, Inc., Fort Worth, Tex., USA). The Extract A and/or Extract C were mixed with 5 ml artificial tears (commercially available from Alcon Laboratories, Inc., Fort Worth, Tex., USA) to reach a final concentration of 150 ng/ml by an oscillator.
3-week old Golden Syrian hamsters, each weighing 80 to 90 grams, were used for experiments. All animals were kept in a 12-hour light/dark cycle. All procedures were approved by the Institutional Animal Care and Use Committee of China Medical University and were conducted in accordance with the guidelines of the Use of Animals in Ophthalmic and Vision Research. Hamsters were raised with right eyelid fusion for 21 days. MFD was induced in the right eyes of the animals, with their left eyes serving as a control. The animals were randomly assigned to […] receiving daily applications of artificial tears or the eye drops prepared in Example 8, respectively, to both eyes. The treatment lasted for 21 days. The axial lengths of both eyes in each animal were measured on the 21st day following the start of the treatment by A-scan ultrasonography (PacScan 300 Plus, NY, USA).

CN1[C@@H]2CC[C@H]1C[C@@H](OC(=O)C(CO)c1ccccc1)C2 (some centres unmarked) [Atropine, atropine]
axial lengths of the non-MFD (left) eyes (Control 0.36±0.05 mm, differences not statistically significant): 0.33±0.03 mm
axial lengths of the MFD (right) eyes (extracts 150 ng/ml, atropine 0.125%, Control 0.436±0.06 mm, p<0.05 vs Control): 0.358±0.01 mm

— patent US20200384053A1, “Ophthalmic Compositions and Medical Uses Thereof in Treatment of Myopia” (SunDragon Bio-medical Technology Co., priority 2019, published 2020)
